The target of test [1] is Peptidyl-prolyl cis-trans isomerase FKBP1A (Homo sapiens, UniProt P62942). The test is described as follows: Binding affinity to human FKBP12 FK1 domain incubated for 30 mins using fluorescein-conjugated 2-(5-((2-(3-((R)-3-(3,4-dimethoxyphenyl)-1-((S)-1-(3,3-dimethyl-2-oxopentanoyl)piperidine-2-carbonyloxy)propyl)phenoxy)acetamido)methyl)-6-hydroxy-3-oxo-3H-xanthen-9-yl)benzoic acid by competitive fluorescence polarization assay. A general note: Polarisation of emitted light reports the rotation of a fluorescent probe.

Test [2] has as its target T1, Peptidyl-prolyl cis-trans isomerase FKBP5 (Homo sapiens, UniProt Q13451).
T1 sequence (Q13451 whole entry): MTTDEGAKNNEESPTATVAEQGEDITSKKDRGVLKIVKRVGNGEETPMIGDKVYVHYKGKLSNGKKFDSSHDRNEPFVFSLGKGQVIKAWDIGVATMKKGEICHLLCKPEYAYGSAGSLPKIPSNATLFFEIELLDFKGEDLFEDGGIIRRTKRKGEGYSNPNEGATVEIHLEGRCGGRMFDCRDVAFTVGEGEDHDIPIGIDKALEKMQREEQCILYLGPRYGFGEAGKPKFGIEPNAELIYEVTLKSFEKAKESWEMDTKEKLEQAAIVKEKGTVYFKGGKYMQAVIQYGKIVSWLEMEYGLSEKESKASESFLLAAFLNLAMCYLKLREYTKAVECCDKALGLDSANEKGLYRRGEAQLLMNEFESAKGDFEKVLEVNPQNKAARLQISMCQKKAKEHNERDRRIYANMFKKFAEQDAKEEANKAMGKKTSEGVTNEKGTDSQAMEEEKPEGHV
The test is described as follows: Binding affinity to FKBP51 FK506-binding domain (1 to 140 amino acids) (unknown origin) incubated for 30 mins using fluorescein-conjugated 2-(5-((2-(3-((R)-3-(3,4-dimethoxyphenyl)-1-((S)-1-(3,3-dimethyl-2-oxopentanoyl)piperidine-2-carbonyloxy)propyl)phenoxy)acetamido)methyl)-6-hydroxy-3-oxo-3H-xanthen-9-yl)benzoic acid by competitive fluorescence polarization assay.

Test [3] concerns the target T2, Peptidyl-prolyl cis-trans isomerase FKBP4 (Homo sapiens) (UniProt Q02790).
T2 sequence (whole entry): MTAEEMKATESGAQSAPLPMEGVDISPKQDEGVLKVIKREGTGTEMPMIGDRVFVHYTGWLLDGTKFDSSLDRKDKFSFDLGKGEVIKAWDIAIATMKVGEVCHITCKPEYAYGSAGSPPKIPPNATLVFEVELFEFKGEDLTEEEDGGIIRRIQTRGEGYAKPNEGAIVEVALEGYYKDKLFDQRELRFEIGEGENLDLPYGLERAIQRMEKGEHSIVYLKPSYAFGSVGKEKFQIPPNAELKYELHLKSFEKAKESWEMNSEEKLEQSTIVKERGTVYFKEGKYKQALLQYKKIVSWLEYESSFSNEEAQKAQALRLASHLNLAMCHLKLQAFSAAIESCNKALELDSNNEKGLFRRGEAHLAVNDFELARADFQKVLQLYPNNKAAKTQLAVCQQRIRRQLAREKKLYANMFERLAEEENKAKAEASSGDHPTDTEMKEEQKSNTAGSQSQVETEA
The test is described as follows: Binding affinity to FKBP52 (1 to 140 amino acids) (unknown origin) up to 500 uM incubated for 30 mins using fluorescein-conjugated 2-(5-((2-(3-((R)-3-(3,4-dimethoxyphenyl)-1-((S)-1-(3,3-dimethyl-2-oxopentanoyl)piperidine-2-carbonyloxy)propyl)phenoxy)acetamido)methyl)-6-hydroxy-3-oxo-3H-xanthen-9-yl)benzoic acid by competitive fluorescence polarization assay.

In test [4] the target is T1, Peptidyl-prolyl cis-trans isomerase FKBP5.
Description: Binding affinity to FKBP51 (unknown origin) by competitive fluorescence polarization assay

Structures are written as SMILES. Active and inactive are the calls of the source. No cut-off for these calls is given here.

Peptidyl-prolyl cis-trans isomerase FKBP1A, sequence (P62942 whole entry, the tested form may be a part): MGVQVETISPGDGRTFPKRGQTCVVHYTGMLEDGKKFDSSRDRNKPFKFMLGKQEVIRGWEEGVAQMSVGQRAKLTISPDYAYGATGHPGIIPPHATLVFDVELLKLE

In the case of `COc1cc([C@@H](C(=O)N2CCCC[C@H]2C(=O)NC(C)(C)CC(N)=O)C2CCCCC2)cc(OC)c1OC`, the inhibitory constant (Ki) in test [1] stood at 3.2 µM; in test [2], 3.8 µM.

Take `COc1cc([C@@H](C(=O)N2CCCC[C@H]2C(=O)N[C@H](CO)C(N)=O)C2CCCCC2)cc(OC)c1OC`: the Ki in test [1] is 46.9 µM; in test [2], 2.8 µM.

In the case of `CCNC(=O)[C@@H]1CCCCN1C(=O)[C@H](c1cc(OC)c(OC)c(OC)c1)C1CCCCC1`, the inhibitory constant (Ki) in test [2] came out at 55 µM.

In the case of `COc1cc([C@@H](C(=O)N2CCCC[C@H]2C(=O)N[C@@H](CO)C(N)=O)C2CCCCC2)cc(OC)c1OC`, the Ki in test [2] was found to be 62.9 µM.

Take `COc1cc([C@@H](C(=O)N2CCCC[C@H]2C(=O)N[C@@H](CCC(N)=O)C(N)=O)C2CCCCC2)cc(OC)c1OC`: in test [2], the affinity corresponds to a Ki of 345 µM.

As for `COc1cc([C@@H](C(=O)N2CCCC[C@H]2C(=O)N[C@H](Cc2ccccc2)C(N)=O)C2CCCCC2)cc(OC)c1OC`, the Ki in test [1] worked out at 5.6 µM; in test [2] it was 1.4 µM.

Take `COc1cc([C@@H](C(=O)N2CCCC[C@H]2C(=O)N[C@H](CCC(N)=O)C(N)=O)C2CCCCC2)cc(OC)c1OC`: the inhibition constant (Ki) in test [1] is 120 µM; in test [2], 3.4 µM.

`COc1cc([C@@H](C(=O)N2CCCC[C@H]2C(=O)N[C@@H](CCO)C(N)=O)C2CCCCC2)cc(OC)c1OC` showed a Ki in test [1] of 317 µM.

As to `COc1cc([C@@H](C(=O)N2CCCC[C@H]2C(=O)N[C@@H](Cc2cnc[nH]2)C(N)=O)C2CCCCC2)cc(OC)c1OC`, the Ki came to 101 µM in test [1] and 13.4 µM in test [2].

As for `COc1cc([C@@H](C(=O)N2CCCC[C@H]2C(=O)N[C@H](C(N)=O)C2CCCCC2)C2CCCCC2)cc(OC)c1OC`, the figures for the inhibitory constant (Ki) in test [1] and in test [2] were 12.8 µM and 4.3 µM, respectively.

Regarding `COc1cc([C@@H](C(=O)N2CCCC[C@H]2C(=O)NC2(C(N)=O)CCCC2)C2CCCCC2)cc(OC)c1OC`, the figures for the Ki in test [1] and in test [2] were 3.8 µM and 0.14 µM, respectively. For the same compound, the inhibition result in test [3] was “inactive”.

On to `COc1cc([C@@H](C(=O)N2CCCC[C@H]2C(=O)NCC(N)=O)C2CCCCC2)cc(OC)c1OC`, for which the results for the Ki in test [1] and in test [2] were above 300 µM and 36.7 µM, respectively.

Compound `COc1cc([C@@H](C(=O)N2CCCC[C@H]2C(=O)N[C@H](C(N)=O)c2ccccc2)C2CCCCC2)cc(OC)c1OC` displayed a Ki in test [1] of 7.5 µM.

In the case of `COc1cc([C@@H](C(=O)N2CCCC[C@H]2C(=O)N[C@@H](C(N)=O)c2ccccc2)C2CCCCC2)cc(OC)c1OC`, in test [1], the Ki was found to be 12.4 µM.

In the case of `COc1ccc(CC[C@@H](NC(=O)[C@@H]2CCCCN2C(=O)[C@H](c2cc(OC)c(OC)c(OC)c2)C2CCCCC2)c2cccc(OCC(=O)O)c2)cc1OC`, the Ki in test [2] was found to be 0.043 µM.

With `COc1cc([C@@H](C(=O)N2CCCC[C@H]2C(=O)N[C@@H](CC(C)C)C(N)=O)C2CCCCC2)cc(OC)c1OC`, the Ki stood at 6.6 µM in test [1] and 8.7 µM in test [2].

For the compound `COc1cc([C@@H](C(=O)N2CCCC[C@H]2C(=O)N[C@H](Cc2cnc[nH]2)C(N)=O)C2CCCCC2)cc(OC)c1OC`, the Ki in test [1] worked out at 26.9 µM; in test [2] it was 3.8 µM.

In turn, `C=CC[C@@H]1/C=C(\C)C[C@H](C)C[C@H](OC)[C@H]2O[C@@](O)(C(=O)C(=O)N3CCCC[C@H]3C(=O)O[C@H](/C(C)=C/[C@@H]3CC[C@@H](O)[C@H](OC)C3)[C@H](C)[C@@H](O)CC1=O)[C@H](C)C[C@@H]2OC` [TACROLIMUS ANHYDROUS] yielded a Ki in test [4] of 0.079 µM.

As to `CC[C@H](NC(=O)[C@@H]1CCCCN1C(=O)[C@H](c1cc(OC)c(OC)c(OC)c1)C1CCCCC1)C(N)=O`, the values for the Ki in test [1] and in test [2] were 51.9 µM and 3.6 µM, respectively.

With `COc1cc([C@@H](C(=O)N2CCCC[C@H]2C(=O)N[C@@H](CCC2CCCCC2)C(N)=O)C2CCCCC2)cc(OC)c1OC`, the Ki in test [1] amounted to 22.5 µM; in test [2] it was 12 µM.

Regarding `COc1cc([C@@H](C(=O)N2CCCC[C@H]2C(=O)NC2(C(N)=O)CC2)C2CCCCC2)cc(OC)c1OC`, the Ki in test [1] came out at 50.3 µM; in test [2], 19.5 µM.

Turning to `COc1cc([C@@H](C(=O)N2CCCC[C@H]2C(=O)NC2(C(N)=O)CCC2)C2CCCCC2)cc(OC)c1OC`, the Ki is 23.4 µM in test [1] and 4.9 µM in test [2].

As to `COc1cc([C@@H](C(=O)N2CCCC[C@H]2C(=O)NCCCC(N)=O)C2CCCCC2)cc(OC)c1OC`, the results for the inhibition constant (Ki) in test [1] and in test [2] were 22.3 µM and 5.7 µM, respectively.

As for `COc1cc([C@@H](C(=O)N2CCCC[C@H]2C(=O)N[C@@H](C(N)=O)C(C)C)C2CCCCC2)cc(OC)c1OC`, the Ki is 39.7 µM in test [1] and 5 µM in test [2].

Turning to `COc1cc([C@@H](C(=O)N2CCCC[C@H]2C(=O)N[C@@H](CC2CCCCC2)C(N)=O)C2CCCCC2)cc(OC)c1OC`, the Ki in test [1] amounted to 6.6 µM; in test [2] it was 17.8 µM.

For the compound `COc1cc([C@@H](C(=O)N2CCCC[C@H]2C(=O)NCCCCC(N)=O)C2CCCCC2)cc(OC)c1OC`, the Ki came out at 4.2 µM in test [1] and 3.9 µM in test [2].

For `COc1cc([C@@H](C(=O)N2CCCC[C@H]2C(=O)N[C@@H](Cc2ccccc2)C(N)=O)C2CCCCC2)cc(OC)c1OC`, the Ki in test [1] worked out at 10.9 µM; in test [2], 6.5 µM.

Turning to `COc1cc([C@@H](C(=O)N2CCCC[C@H]2C(=O)NC2(C(N)=O)CCOCC2)C2CCCCC2)cc(OC)c1OC`, the Ki is 3 µM in test [1] and 1.8 µM in test [2].

Consider `COc1cc([C@@H](C(=O)N2CCCC[C@H]2C(=O)N[C@@H](CCc2ccccc2)C(N)=O)C2CCCCC2)cc(OC)c1OC`, for which the Ki was found to be 30.1 µM in test [1] and 9.1 µM in test [2].

`COc1cc([C@@H](C(=O)N2CCCC[C@H]2C(=O)N[C@H](C)C(N)=O)C2CCCCC2)cc(OC)c1OC`: the figures for the inhibition constant (Ki) in test [1] and in test [2] were 71.1 µM and 10 µM, respectively.

On to `COc1cc([C@@H](C(=O)N2CCCC[C@H]2C(=O)N[C@H](C(N)=O)C(C)C)C2CCCCC2)cc(OC)c1OC`, for which the Ki was 11.5 µM in test [1] and 12.6 µM in test [2].

With `CC[C@@H](C)[C@@H](NC(=O)[C@@H]1CCCCN1C(=O)[C@H](c1cc(OC)c(OC)c(OC)c1)C1CCCCC1)C(N)=O`, the Ki came to 8.7 µM in test [1] and 3.2 µM in test [2].

Turning to `COc1cc([C@@H](C(=O)N2CCCC[C@H]2C(=O)NC2(C(N)=O)CCCCC2)C2CCCCC2)cc(OC)c1OC`, the Ki in test [1] is 4.3 µM; in test [2], 1.9 µM.

In test [1], `COc1cc([C@@H](C(=O)N2CCCC[C@H]2C(=O)N[C@H](CCO)C(N)=O)C2CCCCC2)cc(OC)c1OC` displayed a Ki of 1.2 µM.

As for `COc1cc([C@@H](C(=O)N2CCCC[C@H]2C(=O)NC2(C(=O)NCC(N)=O)CCCC2)C2CCCCC2)cc(OC)c1OC`, the Ki in test [1] amounted to 2 µM; in test [2], 0.8 µM.

`CC[C@H](C)[C@H](NC(=O)[C@@H]1CCCCN1C(=O)[C@H](c1cc(OC)c(OC)c(OC)c1)C1CCCCC1)C(N)=O`: the values for the Ki in test [1] and in test [2] were 12.1 µM and 7.1 µM, respectively.

For `CC[C@@H](NC(=O)[C@@H]1CCCCN1C(=O)[C@H](c1cc(OC)c(OC)c(OC)c1)C1CCCCC1)C(N)=O`, the Ki turned out to be 6 µM in test [1] and 4.5 µM in test [2].

For the compound `COc1cc([C@@H](C(=O)N2CCCC[C@H]2C(=O)NC(C)(C)C(N)=O)C2CCCCC2)cc(OC)c1OC`, the Ki in test [1] was 25.1 µM; in test [2], 2.2 µM.

As for `COc1cc([C@@H](C(=O)N2CCCC[C@H]2C(=O)NCCC(N)=O)C2CCCCC2)cc(OC)c1OC`, the Ki in test [1] was 49.2 µM; in test [2], 5.6 µM.

Consider `COc1cc([C@@H](C(=O)N2CCCC[C@H]2C(=O)N[C@@H](C)C(N)=O)C2CCCCC2)cc(OC)c1OC`, for which the Ki in test [1] amounted to 30.7 µM; in test [2], 17.1 µM.

One may read the Ki as a dissociation constant, usually derived from enzyme kinetics or from competition with a known ligand.
